≈ marks a conversion by molar mass, not a printed value. Some results are limits rather than exact numbers.

The conditions of this data set: buffer; pH 7.4; 200.0 µM.
For `O=C(NC1CCCC1)c1cc(-c2ccccc2Cl)on1`, the kinetic solubility (in general, solubility judged after dilution from a stock solution rather than from solid) came out at 2.2 µg/mL (≈ 7.57 µM).

With `CCc1ccnc(NC(=O)Nc2ccc(OCc3ccccc3)cc2)c1`, the solubility (kinetic) is below 0.2 µg/mL. Next, `O=C(O)c1ccccc1SCc1csc(-c2ccccc2)n1`: above 49.1 µg/mL. Next, `CC(C)C[C@H](NC(=O)NC1CCCc2ccccc21)C(=O)O` (stereo not given in full): above 45.7 µg/mL. The compound `Cc1c(O)nc2ccccn2c1=O` yielded a solubility (kinetic) above 26.4 µg/mL. Compound `COc1ccc(-c2csc3ncnc(NCCO)c23)cc1` came in with a solubility (kinetic) above 45.2 µg/mL. Next, `CCOC(=O)c1cn2ccc(C)cc2n1`: above 30.6 µg/mL. Consider `Cc1nc2ccccc2c2c1C(=O)N(c1cccc(C(=O)O)c1)C2=O`, for which the solubility (kinetic) is above 49.8 µg/mL. Next, `CSc1ccccc1C(=O)OCC(=O)N1CCCCCC1`: above 46.1 µg/mL; `Cc1cc(C(=O)NC2Cc3ccccc3C2)c(C)o1`: above 38.3 µg/mL.

The compound `O=C(NN1CCOCC1)c1ccc(Cl)cc1Cl` returned a kinetic solubility above 41.3 µg/mL. Consider `CCOC(=O)c1oc2ccccc2c1NC(=O)C(C)(C)C`, for which the kinetic solubility amounted to 22.6 µg/mL (≈ 78.1 µM). Next, `CCCC(=O)Nc1ccc(S(=O)(=O)Nc2nccs2)cc1`: 30.4 µg/mL (≈ 93.4 µM); `Cc1cccc(NC(=O)COc2cccc3c2CCN(C)C3=O)c1`: 41.9 µg/mL (≈ 129 µM). In turn, `COc1ccc(NC(=O)COC(=O)CCSc2ccccc2)cc1OC` showed a solubility (kinetic) of 55.5 µg/mL (≈ 148 µM). Next, `Cc1nn(CCCC(=O)Nc2cccnc2)c(C)c1[N+](=O)[O-]`: above 45.5 µg/mL; `O=C(Nc1ccc(N2CCCC2)cc1)c1ccc(Cl)cc1Cl`: 0.5 µg/mL (≈ 1.49 µM); `O=C(O)[C@H](Cc1ccccc1)Nc1ccc([N+](=O)[O-])cn1`: above 43.1 µg/mL. Next, `COC(=O)c1ccc(S(=O)(=O)N2CCN(C)CC2)n1C`: above 45.2 µg/mL.

The compound `Cn1ncc(Cl)c1C(=O)N1CCN(c2ccccc2)CC1` had a solubility (kinetic) above 45.7 µg/mL. In the case of `CN(C)C(CNC(=O)C1CCCN1C(=O)c1cccs1)c1ccccc1` (stereo not given), the solubility (kinetic) is above 55.7 µg/mL. Next, `O=Cc1c(NCCN2CCOCC2)c2ccccc2[nH]c1=O`: above 45.2 µg/mL. As to `O=C(Nc1cccnc1)c1ccc([N+](=O)[O-])s1`, the kinetic solubility came out at 9.9 µg/mL (≈ 39.7 µM).

Take `CC(C)CN1C(=O)NC2(CCCc3ccccc32)C1=O` (stereo not given): the kinetic solubility was above 40.9 µg/mL. On to `CC1CCCCN1C(=O)CNCC1CCCO1.O=C(O)C(=O)O` (stereo not given), for which the kinetic solubility was above 49.6 µg/mL. As to `COc1cc(C(=O)OC(C)C(=O)N2CCCC2)cc2c1OCCO2` (stereo not given), the solubility (kinetic) is above 50.3 µg/mL. Regarding `CCn1c(=O)c(C(=O)NCc2ccccc2)c(O)c2ccccc21`, the solubility (kinetic) was below 0.3 µg/mL. Take `CC1=Nc2ccccc2N=C(NC(=O)/C=C/C(=O)O)C1c1ccccc1` (stereo not given): the kinetic solubility was above 52.1 µg/mL. Next, `Cc1cccc(/C=C(\C#N)C(=O)Nc2ccccn2)c1`: 33.3 µg/mL (≈ 126 µM); `O=C(CSc1ccccc1C(=O)O)NC1CCCCCC1`: above 46.1 µg/mL. As to `CCCN1CCN(C(=O)CCCNC(=O)c2ccc(Cl)cc2)CC1`, the solubility (kinetic) is above 52.8 µg/mL. Next, `Cc1ccc(NC(=S)Nc2cccc3cnccc23)cc1`: 30 µg/mL (≈ 102 µM); `CC(=O)c1ccc(S(=O)(=O)N2CCNC(=O)C2)cc1`: above 42.3 µg/mL; `CCC(=O)c1cn(CC(=O)Nc2ccccc2)c2ccccc12`: below 0.3 µg/mL.

On to `CSc1ncccc1C(=O)NCCc1ccccc1`, for which the kinetic solubility stood at 37.2 µg/mL (≈ 137 µM).

As to `O=C(NC1CCCCC1)C1CCCN1S(=O)(=O)c1ccc(F)cc1` (stereo not given), the kinetic solubility was found to be 8 µg/mL (≈ 22.6 µM).

Consider `CC(C)CCNC(=O)C(=O)NCc1ccccc1`, for which the kinetic solubility was found to be 2.6 µg/mL (≈ 10.5 µM). Next, `Cc1ccccc1N=C1c2ccccc2C(=O)C1[N+](=O)[O-]` (stereo not given): 31.7 µg/mL (≈ 113 µM); `Cc1nc(NC(=O)/C=C/c2ccccc2)sc1C(=O)NCCO`: 12.9 µg/mL (≈ 38.9 µM).

On to `Nc1nonc1OCCOCCOCCOc1nonc1N`, for which the solubility (kinetic) stood at 45.7 µg/mL (≈ 144 µM). `CCOc1ccccc1C(=O)Nc1ccc(NC(=O)c2ccccc2)cc1` came in with a solubility (kinetic) of 1.7 µg/mL (≈ 4.72 µM). `COc1ccc(Cn2cnc([N+](=O)[O-])c2)cc1[N+](=O)[O-]`: the kinetic solubility was above 41.7 µg/mL. Next, `O=C(CCCc1ccccc1)NCc1ccc(Cl)cc1`: 27.7 µg/mL (≈ 96.3 µM).

With `Cc1ccc2c(CN3CCCCC3C)cc(=O)oc2c1.Cl` (stereo not given), the solubility (kinetic) came to 35.6 µg/mL.

Consider `O=C1CN(S(=O)(=O)c2ccc(F)cc2)CCN1`, for which the solubility (kinetic) is above 38.7 µg/mL. Next, `COc1ccccc1C(=O)NCCC(=O)NCc1cccs1`: above 47.8 µg/mL; `Cc1ccc(NCc2ccc(O)c3ncccc23)cc1`: 5 µg/mL (≈ 18.9 µM); `O=C(NNC(=O)c1ccncc1)Nc1cccc(C(F)(F)F)c1`: above 48.6 µg/mL. Take `Cc1ccc(C(=O)NCC(=O)OCC(=O)c2ccccc2)s1`: the solubility (kinetic) is above 47.6 µg/mL. `CN(C)S(=O)(=O)c1ccc(Cl)c(NC(=O)CNC2(C)CCS(=O)(=O)C2)c1` (stereo not given): the solubility (kinetic) was above 63.6 µg/mL.

As to `CC1CCC(NC(=O)CCNC(=O)c2ccccc2)CC1` (stereo not given), the kinetic solubility was above 43.3 µg/mL. Next, `COc1ccc(/C=C/C(=O)OCC(=O)NC2CCCC(C)C2C)cc1` (stereo not given): 6.1 µg/mL (≈ 17.7 µM). `Cc1ccc(OCCN2C(=O)C(=O)c3cccc(C)c32)cc1`: the solubility (kinetic) is below 0.6 µg/mL. For `Nc1ccc(OCc2ccco2)cc1`, the solubility (kinetic) came to 19.5 µg/mL (≈ 103 µM). Next, `COc1cc2c(cc1OC)CC(=O)NC=C2`: above 32.9 µg/mL; `CC(=O)c1c(C)[nH]c(C(=O)COC(=O)c2c(-c3ccccc3)noc2C)c1C`: 2.1 µg/mL (≈ 5.52 µM); `COc1ccc(C(=O)NCc2cc3ccccc3n2C)cc1`: 3.7 µg/mL (≈ 12.6 µM). Regarding `CC(Oc1ccc(Br)cc1)C(=O)NCCCN1CCCC1=O` (stereo not given), the kinetic solubility was above 55.4 µg/mL. `O=C(NC1CCCCC1)c1cccc(OCc2ccccc2)c1`: the solubility (kinetic) stood at 0.8 µg/mL (≈ 2.59 µM).

For `CCOC(=O)COn1c(=O)c(-c2ccc(OC)cc2)[n+]([O-])c2ccccc21`, the kinetic solubility came out at 42 µg/mL (≈ 113 µM). For the compound `COc1ccccc1CC(=O)N1CCOCC1`, the solubility (kinetic) is 34.6 µg/mL (≈ 147 µM).

Compound `O=C(NCCCO)/C(=C\c1ccco1)NC(=O)c1ccco1` had a solubility (kinetic) above 45.6 µg/mL. Compound `Cc1cccc(C)c1OCC(=O)Nc1cccc(C(=O)O)c1` had a solubility (kinetic) above 44.9 µg/mL. Next, `CN(C(=O)c1ccc2nc(N)sc2c1)c1ccccc1`: 40.8 µg/mL (≈ 144 µM); `O=C1c2ccccc2C(=O)N1CCOc1ccccc1Br`: 4 µg/mL (≈ 11.6 µM).

Regarding `CC1CCN(S(=O)(=O)c2ccc(NC(=O)C3CC3)cc2)CC1`, the kinetic solubility came to 37.2 µg/mL (≈ 115 µM). Next, `O=C(CCCc1cccs1)NCCc1c[nH]c2ccccc12`: 44.9 µg/mL (≈ 144 µM). Next, `Cc1ccc(C(CC(=O)N2CCCC2)c2ccccc2)c(O)c1` (stereo not given): above 46.4 µg/mL. Next, `Cn1cc([N+](=O)[O-])c(C(=O)N2CCCCCC2)n1`: above 37.8 µg/mL; `CC(C)CCNC1c2ccccc2C(=O)N1Cc1ccccc1.Cl` (stereo not given): 6.2 µg/mL; `CCOC(=O)N1CCN(C(=O)C(C)c2ccc([N+](=O)[O-])cc2)CC1` (stereo not given): above 50.3 µg/mL. Turning to `Cc1cc(C)c(S(=O)(=O)N2CCN(C(=O)N(C)C)CC2)c(C)c1`, the kinetic solubility was above 50.9 µg/mL. As to `CCOC(=O)c1cnc2c(ccc3ccccc32)c1NCCCN(C)C`, the solubility (kinetic) worked out at 46.1 µg/mL (≈ 131 µM). For `COCc1cc(Sc2ccc(Cl)cc2)nc(C)n1`, the solubility (kinetic) turned out to be 40.1 µg/mL (≈ 143 µM). The solubility kinetic values of the last two compounds are within 1.5-fold of each other. Next, `Cc1ccc(OC(=O)Nc2ccccc2)cc1`: 17.8 µg/mL (≈ 78.3 µM). `COCC(=O)N(Cc1cc2ccc(C)cc2[nH]c1=O)c1ccc(C)cc1C` had a kinetic solubility of 4.9 µg/mL (≈ 13.4 µM). Next, `O=C(COC(=O)c1ccc(Br)o1)NCC1CCCCC1`: above 51.6 µg/mL; `CCOc1ccc2nc(NCCNC(=O)C(C)(C)C)c(C)cc2c1`: 47.1 µg/mL (≈ 143 µM); `O=C(CSc1nc2ccccc2c(=O)n1-c1ccccc1)N1CCC1`: above 52.7 µg/mL. Take `Cc1[nH]c2ccc3ccccc3c2c(=O)c1C/C=C/Cl`: the kinetic solubility stood at 1.1 µg/mL (≈ 3.88 µM). In the case of `COc1ccccc1CNC(=O)c1sccc1-c1ccccc1`, the kinetic solubility is 14.4 µg/mL (≈ 44.5 µM). Next, `CCOC(=O)c1cnc(SCC#N)nc1N`: above 35.7 µg/mL; `CN(Cc1ccccc1)C(=O)N1CCOCC1`: above 35.1 µg/mL; `CNS(=O)(=O)c1ccc(NC(=O)c2csc(C)c2)cc1`: 6.9 µg/mL (≈ 22.2 µM). As to `CCOc1ccc(S(=O)(=O)NCCc2ccccn2)cc1`, the solubility (kinetic) was above 46 µg/mL. Next, `O=C(Nc1ccc(Cl)cn1)c1cccc(OCc2ccccc2)c1`: 0.7 µg/mL (≈ 2.07 µM); `O=S(=O)(Nc1ccccc1)c1cccc2nonc12`: above 41.3 µg/mL.

`O=C(Nc1cc([N+](=O)[O-])ccc1O)NC1CCS(=O)(=O)C1` (stereo not given) returned a solubility (kinetic) above 47.3 µg/mL. Next, `CN1CCN(CCCCOc2cccc3ccccc23)CC1.Cl`: above 50.2 µg/mL; `O=C1NCC(COc2ccc([N+](=O)[O-])cc2)O1` (stereo not given): 34.1 µg/mL (≈ 143 µM); `Cc1ccccc1NC(=O)COC(=O)CC1CCCC1`: above 41.3 µg/mL.

For the compound `CN1C(=S)SC2CS(=O)(=O)CC21C` (stereo not given), the solubility (kinetic) was above 35.6 µg/mL. Next, `NS(=O)(=O)c1ccc2c(c1)C(=NO)c1cc(S(N)(=O)=O)ccc1-2`: 4.6 µg/mL (≈ 13 µM); `CS(=O)(=O)c1ccc2nc(NC(=O)c3ccccc3)sc2c1`: 1.5 µg/mL (≈ 4.51 µM). With `CCc1sc(C(=O)Nc2ccccc2N2CCOCC2)cc1C`, the solubility (kinetic) was found to be 2.5 µg/mL (≈ 7.57 µM). Against the preceding compound, the solubility kinetic is about 1.7-fold higher. Next, `N#Cc1nc(-c2cccc(Cl)c2)oc1N1CCC(C(N)=O)CC1`: 1.8 µg/mL (≈ 5.44 µM). Take `CCCC(=O)N/C(N)=N/c1nc(C)c2ccccc2n1`: the kinetic solubility stood at 15.3 µg/mL (≈ 56.4 µM). With `Cc1cc(C(=O)CCl)c(C)n1Cc1ccco1`, the kinetic solubility is above 37.8 µg/mL. Next, `CNS(=O)(=O)c1cccc(C(=O)OCC(=O)NC2CCCC(C)C2C)c1` (stereo not given): 12.7 µg/mL (≈ 33.2 µM).

Turning to `COc1cc2[nH]c(C(=O)Nc3ccc(F)cc3)cc2c(OC)c1OC`, the solubility (kinetic) amounted to 2.4 µg/mL (≈ 6.97 µM). Next, `Cc1nnc(SCC(=O)NC2CCCCC2)n1N`: above 40.4 µg/mL; `COc1ccc(-n2c(=S)[nH]c3sc4c(c3c2=O)CCN(C)C4)cc1`: above 53.9 µg/mL. The compound `COC(=O)c1[nH]c2c(c1C)C(=O)CC(c1cccc(OC)c1)C2` (stereo not given) registered a solubility (kinetic) of 2.1 µg/mL (≈ 6.7 µM).

The compound `O=C(C1CC1)N1CCN(c2ccc(F)cc2)CC1` came in with a solubility (kinetic) of 34.7 µg/mL (≈ 140 µM). This solubility kinetic lies about 17-fold higher than the previous one.

The compound `C=CCNC(=O)COC(=O)c1nc2nccc(C)n2n1` gave a solubility (kinetic) above 41.3 µg/mL.

Values taken from PubChem BioAssay AID1996.
